Results from US9204653B2, “5-fluoro pyrimidine derivatives” (DOW AGROSCIENCES LLC, priority 2008, dated 2015).
Where two headings read alike, the source gives them in different places.

Tested on: Mycosphaerella graminicola; Anamorph: Septoria tritici; Bayer Code SEPTTR
Test: Leaf blotch of wheat, foliar fungicide treatment, one day protectant (1DP) or three day curative (3DC)
Type: in vivo, Septoria tritici on wheat plants (variety Yuma)
Settings: Zymoseptoria tritici, rating of percent disease control
[1] = 24 h, one day protectant (1DP), read-out: SETTTR 1DP 25 ppm
[2] = 24 h, one day protectant (1DP), read-out: SEPTTR 1DP 100 ppm
[3] = 72 h, three day curative (3DC), read-out: SEPTTR 3DC 25 ppm
[4] = 72 h, three day curative (3DC), read-out: SEPTTR 3DC 100 ppm

SMILES | pest or weed control at 25 ppm [1] | pest or weed control at 100 ppm [2] | pest or weed control at 25 ppm [3] | pest or weed control at 100 ppm [4]
COc1ccccc1COc1ncc(F)c(NC(=S)Nc2ccccc2F)n1 [Compound 239] | 76 to 100% | 76 to 100% | 51 to 75% | 76 to 100%
Nc1nc(OCCc2ccccc2Cl)ncc1F [Compound 240] | 0 to 25% | 26 to 50% | 0 to 25% | 0 to 25%
COc1ccc(COc2ncc(F)c(/N=C/N3CCOCC3)n2)cc1F [Compound 241] | 76 to 100% | 76 to 100% | 76 to 100% | 51 to 75%
Cc1ccc(COc2ncc(F)c(NNC3CCCCC3)n2)cc1 [Compound 244] | 0 to 25% | 76 to 100% | 0 to 25% | 76 to 100%
Cn1ccc(COc2ncc(F)c(NCO)n2)n1 [Compound 245] | 51 to 75% | 76 to 100% | 51 to 75% | 76 to 100%
Cc1cc(Cl)ccc1Oc1ncc(F)c(N)n1 [Compound 246] | 0 to 25% | 0 to 25% |  | 
CN(C)/C=N/c1nc(OC(=O)C2CCCCC2)ncc1F [Compound 247] | 76 to 100% | 76 to 100% | 76 to 100% | 76 to 100%
COc1ccc(COc2ncc(F)c(NCc3ccccc3F)n2)cc1 [Compound 249] | 26 to 50% | 76 to 100% | 26 to 50% | 51 to 75%
CN(C)/C=N/c1nc(Cl)ncc1F [Compound 252] | 26 to 50% | 26 to 50% | 0 to 25% | 0 to 25%
Cc1ccc(COc2ncc(F)c(N(C)N)n2)cc1 [Compound 253] | 26 to 50% | 76 to 100% | 51 to 75% | 76 to 100%
C=C(C)COc1ncc(F)c(N)n1 [Compound 256] | 0 to 25% | 0 to 25% | 0 to 25% | 26 to 50%
CCOCNc1nc(OCc2ccc(F)cc2)ncc1F [Compound 257] | 51 to 75% | 76 to 100% | 51 to 75% | 76 to 100%
NNc1nc(OCc2ccccc2)ncc1F [Compound 258] | 51 to 75% | 76 to 100% | 26 to 50% | 51 to 75%
CC(=O)OCNc1nc(OCc2ccc(F)cc2)ncc1F [Compound 259] | 51 to 75% | 76 to 100% | 76 to 100% | 76 to 100%
CN1CCCC/C1=N\c1nc(OCc2cccc(C#N)c2)ncc1F [Compound 261] | 51 to 75% | 76 to 100% | 51 to 75% | 76 to 100%
O=C(Nc1nc(OCc2ccc(F)cc2)ncc1F)OCCl [Compound 262] | 51 to 75% | 76 to 100% | 76 to 100% | 76 to 100%
COc1ccc(S(=O)(=O)Oc2ncc(F)c(/N=C/N(C)C)n2)cc1 [Compound 264] | 51 to 75% | 76 to 100% | 76 to 100% | 76 to 100%

SMILES | pest or weed control at 25 ppm [1] | pest or weed control at 100 ppm [2] | pest or weed control at 25 ppm [3] | pest or weed control at 100 ppm [4]
Fc1cccc(COc2ncc(F)c(NC(=S)Nc3ccccc3F)n2)c1 [Compound 266] | 76 to 100% | 76 to 100% | 0 to 25% | 76 to 100%
CC(C)Oc1ncc(F)c(N)n1 [Compound 267] | 0 to 25% | 0 to 25% | 0 to 25% | 0 to 25%
COc1cccc(COc2ncc(F)c(OC)n2)c1 [Compound 269] | 0 to 25% | 0 to 25% | 0 to 25% | 0 to 25%
COCCOC(=O)Nc1nc(OCc2cccc(F)c2)ncc1F [Compound 273] | 51 to 75% | 76 to 100% | 76 to 100% | 76 to 100%
CN1CCC/C1=N\c1nc(OCc2ccc(F)cc2)ncc1F [Compound 274] | 76 to 100% | 76 to 100% | 76 to 100% | 76 to 100%
Nc1nc(OCc2cscn2)ncc1F [Compound 275] | 76 to 100% | 76 to 100% | 76 to 100% | 76 to 100%
CCOC(=O)Nc1nc(OCc2cccc(OC)c2)ncc1F [Compound 276] | 76 to 100% | 76 to 100% | 76 to 100% | 76 to 100%
CC[Si](CC)(CC)Nc1nc(OCCCOC)ncc1F [Compound 279] | 51 to 75% | 76 to 100% | 76 to 100% | 76 to 100%
COCCOC(=O)Nc1nc(OCc2ccc(F)cc2)ncc1F [Compound 280] | 76 to 100% | 76 to 100% | 76 to 100% | 76 to 100%
Fc1cnc(OCc2ccccc2)nc1NNc1ccccc1 [Compound 282] | 0 to 25% | 26 to 50% | 26 to 50% | 51 to 75%
O=[N+]([O-])c1ccccc1NNc1nc(OCc2ccc(Cl)c(Cl)c2)ncc1F [Compound 283] | 51 to 75% | 76 to 100% | 0 to 25% | 26 to 50%
Nc1nc(OCc2ccc(O)cc2)ncc1F [Compound 284] | 0 to 25% | 0 to 25% | 0 to 25% | 0 to 25%
C/C=C(C)/C=N/Nc1nc(OCc2cccc(OC)c2)ncc1F [Compound 285] | 51 to 75% | 76 to 100% | 26 to 50% | 26 to 50%
CCc1ccccc1COc1ncc(F)c(N)n1 [Compound 286] | 76 to 100% | 76 to 100% | 51 to 75% | 76 to 100%
CCCCCNC(=S)Nc1nc(OCc2ccc(C)cc2)ncc1F [Compound 287] | 76 to 100% | 76 to 100% | 76 to 100% | 76 to 100%
Nc1nc(OCc2ccc(F)cc2F)ncc1F [Compound 289] | 76 to 100% | 76 to 100% | 76 to 100% | 76 to 100%
O=C(Nc1ccccc1F)Nc1nc(OCc2ccccc2)ncc1F [Compound 291] | 0 to 25% | 0 to 25% | 0 to 25% | 26 to 50%
